Measured values taken from US20240398823A1, “DUAL INHIBITOR OF HISTONE DEACETYLASE 6 AND HEAT SHOCK PROTEIN 90” (TAIPEI MEDICAL UNIVERSITY, priority 2021, published 2024).
pIC50: −log10 of the molar value.

Experiments:
HSP90β = target: T1, HSP90β (Homo sapiens, UniProt P08238); assay: HSP90 inhibition assay, FITC-geldanamycin competition fluorescence polarization, HSP90β; assay type: binding; details: FITC-GM competition
T1 construct: Reaction Biology Corporation (ran the assay as a service)

[1] = test system: human colon normal epithelial cells (CCD841CON); assay: MTT cytotoxicity to normal cells, CCD841CON; assay type: cell-based; details: CCD-841CoN, 48 hours, read-out: IC50, proliferation of CCD841CON
Description: FIGS. 3A and 3B show the effects of Compound 75 on cytotoxicity to normal cell lines. Cells were treated with DMSO or different concentrations of Compound 75 for 48 hours and cell viability was assessed by MTT assay. […] Data are expressed as mean t S.D. N values greater than 3. * P<0.05; ** P<0.01; *** P<0.001, compared with the control group.
The effects on cell viability of the HSP90/HDAC6 dual inhibitors as described in Synthesis Examples (such as Compounds 63, 64, and 66 to 76) were evaluated. Cells were seeded in 96-well plates (5000 cells/well). The next day, the serially diluted drugs were added into the wells and incubated at 37° C. for 48 h. Cell viability was measured by the MTT assay and is expressed as percentages of surviving drug-treated cells relative to untreated control cells. The IC50 was calculated by non-linear regression analysis.
The cytotoxicity to normal cells of Compound 75 was evaluated.

[2] = test system: central memory T cells (TCM) in the spleen; assay: Central memory T cells in spleen by flow cytometry; assay type: in vivo, mouse
Description: Stage 1: CT26 was injected subcutaneously into the left dorsum of immunocompetent mice (BALB/c), and Compound 75 treatment was started after 3 days, administered intravenously at a dose of 50 mg/kg every two days (7 doses in total). After tumor removal, tumor cells were isolated for in vitro culture (untreated tumor control-tumor; Compound 75-treated tumor: Compound 75-tumor). Stage 2: On day 17, the isolated tumor cells were injected subcutaneously into the right side of the mouse back and the mice were sacrificed on day 37 (as shown in FIG. 14A). […] Data are mean t S.E.M. N values greater than 4.

[3] = Toxicity, body weight and blood counts in BALB/c mice with CT26 tumors; assay type: in vivo
HDAC6 = target: T2, HDAC6 (Homo sapiens, UniProt Q9UBN7); assay: HDAC enzymes inhibition assay (Reaction Biology), HDAC6; assay type: biochemical; details: 10-dose, 3-fold dilution from 10 μM, single experiment
T2 construct: Reaction Biology Corporation (ran the assay as a service)
T2 sequence (Q9UBN7 1-1215): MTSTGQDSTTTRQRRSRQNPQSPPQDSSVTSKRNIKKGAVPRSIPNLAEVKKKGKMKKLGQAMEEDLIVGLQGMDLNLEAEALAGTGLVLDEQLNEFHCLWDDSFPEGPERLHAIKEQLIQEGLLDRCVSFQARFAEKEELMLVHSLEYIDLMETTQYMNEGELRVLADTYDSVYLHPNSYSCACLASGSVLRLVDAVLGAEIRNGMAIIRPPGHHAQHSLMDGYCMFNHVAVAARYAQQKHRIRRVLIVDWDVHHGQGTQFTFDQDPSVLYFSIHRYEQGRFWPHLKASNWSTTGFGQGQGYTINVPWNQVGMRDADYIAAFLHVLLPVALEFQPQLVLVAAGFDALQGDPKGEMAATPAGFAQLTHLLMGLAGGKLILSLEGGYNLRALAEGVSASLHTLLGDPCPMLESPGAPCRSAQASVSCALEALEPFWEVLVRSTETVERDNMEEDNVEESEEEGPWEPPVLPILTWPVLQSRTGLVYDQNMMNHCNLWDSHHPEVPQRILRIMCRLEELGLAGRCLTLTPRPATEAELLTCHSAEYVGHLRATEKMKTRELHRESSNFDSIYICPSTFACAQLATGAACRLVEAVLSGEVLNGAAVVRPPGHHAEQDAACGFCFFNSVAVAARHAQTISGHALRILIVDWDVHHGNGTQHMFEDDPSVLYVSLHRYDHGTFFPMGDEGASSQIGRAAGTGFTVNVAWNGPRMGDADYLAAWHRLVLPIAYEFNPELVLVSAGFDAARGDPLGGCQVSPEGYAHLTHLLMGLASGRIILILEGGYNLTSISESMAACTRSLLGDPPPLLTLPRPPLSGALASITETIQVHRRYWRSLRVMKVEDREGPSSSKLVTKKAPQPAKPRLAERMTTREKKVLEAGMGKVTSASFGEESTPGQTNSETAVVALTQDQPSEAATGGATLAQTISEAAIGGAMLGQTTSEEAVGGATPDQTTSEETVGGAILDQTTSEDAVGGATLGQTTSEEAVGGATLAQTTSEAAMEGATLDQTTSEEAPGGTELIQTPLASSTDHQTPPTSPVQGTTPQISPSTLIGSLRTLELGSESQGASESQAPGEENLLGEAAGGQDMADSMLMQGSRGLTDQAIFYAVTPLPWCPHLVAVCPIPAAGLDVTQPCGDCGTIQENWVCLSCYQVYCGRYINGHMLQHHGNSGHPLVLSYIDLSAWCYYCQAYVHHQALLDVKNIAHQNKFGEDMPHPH

[4] = test system: HSP90 client proteins (HSP70, Src, AKT, Rb, FAK); assay: Western blot of HSP70 and HSP90 client proteins in HCT116; assay type: cell-based, human; details: HCT116, 0.25-1 μM, 48 hours
Description: The ability of α-tubulin and histone H3 acetylation was measured.
The effects of the HSP90/HDAC6 dual inhibitors as described in Synthesis Examples (such as Compounds 63, 64, and 66 to 76) on several factors were evaluated. Cells were lysed in RIPA buffer (Thermo Fisher Scientific, Wal-tham, MA, USA) and protease inhibitor (Roche, Basel, CH). Sample were further separated in 8% or 15% SDS-PAGE and transferred to nitrocellulose membrane and blocked with 5% skim milk (w/v in PBS). Nitrocellulose membranes were then incubated with primary antibodies against the following antigens: HSP90, Src, AKT, Rb, phosphorylated Rb (p-Rb), FAK, HSP70, α-tubulin acetylation, acetyl histone H3, phosphorylated STAT1 (p-STAT1), STAT1 (Cell signaling, Danvers, MA, USA), α-tubulin, Histone H3 (Genetex, Irvine, USA), IDO (Santa Cruz Biotechnology Dallas, TX, USA) and PD-L1 (Novus, Littleton, CO, USA) at 4° C. for overnight. The target proteins were visualized by using HRP-conjugated secondary antibodies (Jackson ImmunoResearch Laboratories, West Grove, PA, USA) and enhanced chemiluminescence kit (Thermo Fisher Scientific, Waltham, MA, U.S.A.).
The ability of Compound 75 on the acetylation of α-tubulin and histone H3 was evaluated. HCT116 cells were administered with Compound 75 for 6 hours and analyzed by western blot. […] Next, whether Compound 75 inhibited HSP90 was evaluated. […]

[5] = CT26 in Balb/c, 10, 25, 50 mg/kg i.v. every two days

T1 sequence (P08238 whole entry): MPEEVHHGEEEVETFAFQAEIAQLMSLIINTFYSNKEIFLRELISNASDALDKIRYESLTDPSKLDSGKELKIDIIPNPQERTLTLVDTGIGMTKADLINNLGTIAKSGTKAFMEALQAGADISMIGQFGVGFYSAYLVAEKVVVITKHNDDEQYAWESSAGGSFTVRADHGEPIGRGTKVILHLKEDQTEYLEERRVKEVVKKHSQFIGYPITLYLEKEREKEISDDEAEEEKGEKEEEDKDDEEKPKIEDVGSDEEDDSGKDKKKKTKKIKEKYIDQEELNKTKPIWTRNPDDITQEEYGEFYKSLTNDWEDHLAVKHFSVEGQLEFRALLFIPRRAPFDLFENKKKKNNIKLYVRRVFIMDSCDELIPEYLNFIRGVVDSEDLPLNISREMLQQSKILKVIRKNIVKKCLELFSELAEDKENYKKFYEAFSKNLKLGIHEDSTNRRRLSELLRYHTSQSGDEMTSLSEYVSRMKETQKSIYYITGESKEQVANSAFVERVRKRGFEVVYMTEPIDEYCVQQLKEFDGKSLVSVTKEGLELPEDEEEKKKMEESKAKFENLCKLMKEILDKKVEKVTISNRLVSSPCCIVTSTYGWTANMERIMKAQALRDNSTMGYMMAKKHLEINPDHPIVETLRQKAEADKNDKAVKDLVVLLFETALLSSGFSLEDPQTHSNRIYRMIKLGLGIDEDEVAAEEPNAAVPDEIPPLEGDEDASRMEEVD

For `COc1ccc(N(Cc2ccc(C(=O)NO)cc2)C(=O)c2cc(C(C)C)c(O)cc2O)cc1` [Compound 75, 2,4-Dihydroxy-N-(4-hydroxycarbamoyl-benzyl)-5-isopropyl-N-(4-methoxy-phenyl)-benzamide], the pIC50 (HSP90β) was 7.17, the pIC50 [1] was less than 4.70 and the “percentage of central memory T cells” value [2] was “significantly increased”. For the same compound, the body weight [3, 5] was “no significant change in body weight”, the toxicity in mice [3, 5] was “no significant toxicity” and the “white blood cell, lymphocyte, red blood cell, hemoglobin and platelet counts, lymphocyte percentage” value ([3]; blood from heart on day 25, 10, 25, 50 mg/kg every two days, versus control group) was “not significantly different”. For the same compound, the “organ toxicity or hematotoxicity” value ([3]; immunocompetent mice) was “does not cause significant organ toxicity or hematotoxicity”, the pIC50 (HDAC6) was 8.34 and the HSP70 expression [4] was “an increase in HSP70 expression”. For the same compound, the “protein levels of client proteins (Src, AKT, Rb and FAK)” value [4] was “a downregulation of the protein levels of client proteins”.
